Results reported in US10494366B2, “Pesticidally active amide heterocyclic derivatives with sulphur containing substituents” (Syngenta Participations AG, priority 2014, dated 2019).

Assays:
[1] = test system: Spodoptera littoralis (Egyptian cotton leaf worm); assay: Example B1: Spodoptera littoralis, sprayed cotton leaf discs; format: in vivo; settings: foliar, 72 h, application rate 200 ppm, L1 larvae, 3 days after infestation, read-out: control in at least one of the three categories (mortality, anti-feedancy or growth inhibition)
Procedure: Cotton leaf discs were placed on agar in 24-well microtiter plates and sprayed with aqueous test solutions prepared from 10,000 ppm DMSO stock solutions. After drying the leaf discs were infested with five L1 larvae. The samples were assessed for mortality, anti-feedant effect, and growth inhibition in comparison to untreated samples 3 days after infestation. Control of Spodoptera littoralis by a test sample is when at least one of mortality, anti-feedant effect, and growth inhibition is higher than the untreated sample.

[2] = test system: Tetranychus urticae (two-spotted spider mite); assay: Example B8: Tetranychus urticae, sprayed bean leaf discs; format: in vivo; settings: foliar, 192 h, application rate 200 ppm, mixed population (mobile stages), 8 days after infestation
From the text: Bean leaf discs on agar in 24-well microtiter plates were sprayed with aqueous test solutions prepared from 10,000 ppm DMSO stock solutions. After drying the leaf discs were infested with a mite population of mixed ages.

[3] = test system: Plutella xylostella (diamond back moth); assay: Example B3: Plutella xylostella, treated artificial diet; format: in vivo; settings: 120 h, application rate 200 ppm, L2 larvae, 5 days after infestation, read-out: effect in at least one of the two categories (mortality or growth inhibition)
Procedure: (§1) 24-well microtiter plates with artificial diet were treated with aqueous test solutions prepared from 10,000 ppm DMSO stock solutions by pipetting. After drying, the plates were infested with L2 larvae (10 to 15 per well). The samples were assessed for mortality and growth inhibition in comparison to untreated samples 5 days after infestation.

[4] = test system: Euschistus heros (neotropical brown stink bug); assay: Example B6: Euschistus heros, sprayed soybean leaf; format: in vivo; settings: 120 h, application rate 200 ppm, N-2 nymphs, 5 days after infestation
From the text: Soybean leaf on agar in 24-well microtiter plates were sprayed with aqueous test solutions prepared from 10,000 ppm DMSO stock solutions. After drying the leaf were infested with N-2 nymphs.

[5] = test system: Diabrotica balteata (corn root worm); assay: Example B4: Diabrotica balteata, sprayed maize sprouts; format: in vivo; settings: 96 h, application rate 200 ppm, L2 larvae, 4 days after infestation, read-out: effect in at least one of the two categories (mortality or growth inhibition)
Procedure: as §1, with “Maize sprouts, placed on an agar layer in 24-well” for “24-well”, “plates” for “plates with artificial diet”, “spraying.” for “pipetting.”, “(6” for “(10”, “10” for “15”, “4” for “5”

[6] = test system: Spodoptera littoralis (Egyptian cotton leaf worm); assay: Example B2: Spodoptera littoralis, systemic test via lettuce roots in agar; format: in vivo; settings: 144 h, application rate 12.5 ppm, Spodoptera eggs, 6 days after infestation, read-out: control in at least one of the three categories (mortality, anti-feedancy or growth inhibition)
From the text: Test compounds were applied by pipette from 10,000 ppm DMSO stock solutions into 24-well plates and mixed with agar. Lettuce seeds were placed on the agar and the multi well plate was closed by another plate which contains also agar. After 7 days the roots have absorbed the compound and the lettuce has grown into the lid plate. The lettuce leafs were now cut off into the lid plate. Spodoptera eggs were pipetted through a plastic stencil on a humid gel blotting paper and the plate closed with it. The samples were assessed for mortality, anti-feedant effect and growth inhibition in comparison to untreated samples 6 days after infestation.
The following compounds gave an effect of at least 80% control in at least one of the three categories (mortality, anti-feedancy or growth inhibition) at an application rate of 12.5 ppm: P2, P3, P8, P9, P11 and P17, P19, P20, P22, P23, P25, P26, P28, P30, P31, P32, P33, P40, P42, P43, P44, P45, P46, P47, P48, P49, P50, P51, P52, P53, P54, P60 and P61.

[7] = test system: Myzus persicae (green peach aphid); assay: Example B5: Myzus persicae, sprayed sunflower leaf discs; format: in vivo; settings: foliar, 144 h, application rate 200 ppm, aphid population of mixed ages, 6 days after infestation
Procedure: Sunflower leaf discs were placed on agar in a 24-well microtiter plate and sprayed with aqueous test solutions prepared from 10,000 ppm DMSO stock solutions. After drying, the leaf discs were infested with an aphid population of mixed ages. The samples were assessed for mortality 6 days after infestation.

[8] = test system: Myzus persicae (green peach aphid); assay: Example B7: Myzus persicae, systemic test with roots of pea seedlings in test solution; format: in vivo; settings: 144 h, test rate 24 ppm, aphid population of mixed ages, 6 days
From the text: Roots of pea seedlings infested with an aphid population of mixed ages were placed directly in the aqueous test solutions prepared from 10,000 DMSO stock solutions.

[9] = test system: Bemisia tabaci (cotton white fly); assay: Example B10: Bemisia tabaci, sprayed cotton leaf discs; format: in vivo; settings: foliar, 144 h, application rate 200 ppm, adult white flies, 6 days after incubation
Procedure: Cotton leaf discs were placed on agar in 24-well microtiter plates and sprayed with aqueous test solutions prepared from 10,000 ppm DMSO stock solutions. After drying the leaf discs were infested with adult white flies. The samples were checked for mortality 6 days after incubation.

melting point [°C] | Structure (SMILES) | percent control (mortality, anti-feedant effect or growth inhibition) at 200 ppm [1] [%] | mortality at 200 ppm [2] [%] | percent effect (mortality or growth inhibition) at 200 ppm [3] [%] | mortality at 200 ppm [4] [%] | percent effect (mortality or growth inhibition) at 200 ppm [5] [%] | percent control (mortality, anti-feedant effect or growth inhibition) at 12.5 ppm [6] [%] | mortality at 200 ppm [7] [%] | mortality at 24 ppm [8] [%] | mortality at 200 ppm [9] [%]
– | CCS(=O)(=O)c1cc(-c2ccc(Cl)c(Cl)n2)cnc1C(=O)/N=c1\sc(C(F)(F)F)nn1C [Compound P45] | ≥ 80 | ≥ 80 | ≥ 80 | ≥ 80 | ≥ 80 | ≥ 80 | ≥ 80 | – | –
173 to 175 | CCSc1cc(-c2ccc(C(F)(F)F)cc2)cnc1C(=O)/N=c1\sc(C(F)(F)C(F)(F)F)nn1C | – | – | – | – | – | – | – | – | –
– | CCS(=O)(=O)c1cc(C2CC2)cnc1C(=O)/N=c1\sc(C(F)(F)F)nn1C [Compound P63] | ≥ 80 | – | ≥ 80 | ≥ 80 | ≥ 80 | – | ≥ 80 | ≥ 80 | –
184 to 186 | CCS(=O)(=O)c1cc(-c2cccc(Cl)c2)cnc1C(=O)/N=c1\sc(C(F)(F)F)nn1C | – | – | – | – | – | – | – | – | –
– | CCS(=O)(=O)c1cc(-c2ncccn2)cnc1C(=O)/N=c1\ccc(SC(F)(F)F)cn1C [Compound P17, (N)-3-ethylsulfonyl-N-[1-methyl-5-(trifluoromethylsulfanyl)-2-pyridylidene]-5-pyrimidin-2-yl-pyridine-2-carboxamide] | ≥ 80 | – | ≥ 80 | ≥ 80 | ≥ 80 | ≥ 80 | ≥ 80 | ≥ 80 | –
147 to 148 | CCSc1cc(-c2ccc(Cl)cc2)cnc1C(=O)/N=c1\sc(C(F)(F)F)nn1C | – | – | – | – | – | – | – | – | –
– | CCS(=O)(=O)c1cc(-c2ncccn2)cnc1C(=O)/N=c1\sc(C(F)(F)F)nn1C [Compound P42] | ≥ 80 | – | ≥ 80 | ≥ 80 | ≥ 80 | ≥ 80 | ≥ 80 | ≥ 80 | –
219 to 221 | CCSc1cc(-n2ccc(C(F)(F)F)n2)cnc1C(=O)/N=c1\sc(C(F)(F)C(F)(F)F)nn1C | – | – | – | – | – | – | – | – | –
– | CCS(=O)(=O)c1cc(-c2cncs2)cnc1C(=O)/N=c1\sc(C(F)(F)F)nn1C [Compound P39] | ≥ 80 | – | – | – | ≥ 80 | – | – | – | ≥ 80
– | CCS(=O)(=O)c1cc(-c2cccc3c2OC(F)(F)O3)cnc1C(=O)/N=c1\sc(C(F)(F)F)nn1C [Compound P29] | ≥ 80 | ≥ 80 | ≥ 80 | ≥ 80 | ≥ 80 | – | – | – | –
140 to 142 | CCS(=O)(=O)c1cc(-c2ccc(C(F)(F)F)cc2)ccc1C(=O)/N=c1\sc(C(F)(F)F)nn1C | – | – | – | – | – | – | – | – | –
– | CCS(=O)(=O)c1cc(-c2nccc(C(F)(F)F)n2)cnc1C(=O)/N=c1\sc(C(F)(F)F)nn1C [Compound P40] | ≥ 80 | – | ≥ 80 | ≥ 80 | ≥ 80 | ≥ 80 | ≥ 80 | – | –
– | CCS(=O)(=O)c1cc(-c2ncc(Cl)cc2Cl)cnc1C(=O)/N=c1\sc(C(F)(F)F)nn1C [Compound P46] | ≥ 80 | – | ≥ 80 | ≥ 80 | ≥ 80 | ≥ 80 | ≥ 80 | – | –
– | CCS(=O)(=O)c1cc(-c2ccccn2)cnc1C(=O)/N=c1\sc(C(F)(F)F)nn1C [Compound P51] | ≥ 80 | – | ≥ 80 | ≥ 80 | ≥ 80 | ≥ 80 | ≥ 80 | – | –
– | CCS(=O)(=O)c1cc(-c2ccc(C(F)(F)F)cc2)cnc1C(=O)/N=c1\sc(C(F)(F)C(F)(F)F)nn1C [Compound P8] | ≥ 80 | ≥ 80 | ≥ 80 | ≥ 80 | ≥ 80 | ≥ 80 | ≥ 80 | – | –
– | CCS(=O)(=O)c1cc(-c2ccc(Cl)cc2)cnc1C(=O)/N=c1\sc(C(F)(F)C(F)(F)F)nn1C [Compound P11] | ≥ 80 | – | ≥ 80 | ≥ 80 | ≥ 80 | ≥ 80 | ≥ 80 | – | –
– | CCS(=O)(=O)c1cc(-c2ncc(Cl)s2)cnc1C(=O)/N=c1\sc(C(F)(F)F)nn1C [Compound P57] | ≥ 80 | – | ≥ 80 | – | ≥ 80 | – | – | – | ≥ 80
– | CCS(=O)(=O)c1cc(C2(C#N)CC2)cnc1C(=O)/N=c1\sc(C(F)(F)C(F)(F)F)nn1C [Compound P20, (N)-5-(1-cyanocyclopropyl)-3-ethylsulfonyl-N-[3-methyl-5-(1,1,2,2,2-pentafluoroethyl)-1,3,4-thiadiazol-2-ylidene]pyridine-2-carboxamide] | ≥ 80 | – | ≥ 80 | ≥ 80 | ≥ 80 | ≥ 80 | ≥ 80 | – | ≥ 80
– | CCS(=O)(=O)c1cc(-c2ccnc(F)c2)cnc1C(=O)/N=c1\sc(C(F)(F)F)nn1C [Compound P54] | ≥ 80 | – | ≥ 80 | ≥ 80 | ≥ 80 | ≥ 80 | ≥ 80 | – | –
– | CCS(=O)(=O)c1cc(-c2cccc(OC(F)(F)F)c2)cnc1C(=O)/N=c1\sc(C(F)(F)F)nn1C [Compound P31] | ≥ 80 | ≥ 80 | ≥ 80 | – | ≥ 80 | ≥ 80 | – | – | –
– | CCS(=O)(=O)c1cc(-c2cc(C(F)(F)F)ccn2)cnc1C(=O)/N=c1\sc(C(F)(F)F)nn1C [Compound P70] | ≥ 80 | ≥ 80 | ≥ 80 | – | ≥ 80 | – | – | – | –
